From patent US9376425B2, “Heterocyclic compounds as MDM2 inhibitors for the treatment of cancer” (AMGEN INC., priority 2011, dated 2016) come the findings set out here.

The term IC50 denotes the midpoint of a concentration-inhibition curve.

For the assay, the target named is T1, human MDM2 (GST-hMDM2 1-188), interaction with biotinylated-p53 (1-83) (Homo sapiens, UniProt Q00987).
T1 construct: Amino acid residues 1-188 of human MDM2 were expressed; made in house; host or cells: Escherichia coli
T1 sequence (Q00987 1-188): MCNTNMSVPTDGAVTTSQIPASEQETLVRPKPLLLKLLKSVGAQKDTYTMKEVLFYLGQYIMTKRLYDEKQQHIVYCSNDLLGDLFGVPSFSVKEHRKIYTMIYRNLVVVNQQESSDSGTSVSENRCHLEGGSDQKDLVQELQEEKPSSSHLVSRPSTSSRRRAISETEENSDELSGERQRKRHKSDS
The assay is described as follows: improved HTRF assay (HTRF2 assay), inhibition of HDM2-p53 interaction. In kind it is binding. To be noted: 0.2 nM GST-hMDM2, 0.5 nM biotinylated-p53, 100 mM KF. The method in brief:
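Time-resolved fluorescence (HTRF) read after >4 h equilibration with SA-XLent/anti-GST cryptate/KF detection reagents. Reaction: compound plus GST-hMDM2 for 20 min at room temperature, then E. coli-expressed biotinylated p53 residues 1-83 for 60 min, 2% DMSO final. Inhibition expressed versus nutlin-3.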
Compound “2-((2R,5R,6R)-6-(3-chlorophenyl)-5-(4-chlorophenyl)-4-((S)-1-(N-(2-cyanophenyl)cyclopropanesulfonamido)butan-2-yl)-3-oxomorpholin-2-yl)acetic acid or 2-((2S,5R,6R)-6-(3-chlorophenyl)-5-(4-chlorophenyl)-4-((S)-1-(N-(2-cyanophenyl)cyclopropanesulfonamido)butan-2-yl)-3-oxomorpholin-2-yl)acetic acid [Example 207]” displayed an IC50 of less than 1 nM.
The compound `C[C@@H](CS(=O)(=O)C(C)(C)C)N1C(=O)[C@H](CC(N)=O)O[C@H](c2cccc(Cl)c2)[C@H]1c1ccc(Cl)cc1` (single isomer, unassigned) [Example 226, 2-((2S,5R,6R)-4-((S)-1-(tert-butylsulfonyl)propan-2-yl)-6-(3-chlorophenyl)-5-(4-chlorophenyl)-3-oxomorpholin-2-yl)acetamide or 2-((2R,5R,6R)-4-((S)-1-(tert-butylsulfonyl)propan-2-yl)-6-(3-chlorophenyl)-5-(4-chlorophenyl)-3-oxomorpholin-2-yl)acetamide] had a half-maximal inhibitory concentration (IC50) of 11 nM.
With `CC(C)[C@H](CN(c1ccccc1)S(=O)(=O)C1CC1)N1C(=O)[C@@H](CC(=O)O)O[C@H](c2cccc(Cl)c2)[C@H]1c1ccc(Cl)cc1` (single isomer, unassigned) [Example 193, 2-((2R,5R,6R)-6-(3-chlorophenyl)-5-(4-chlorophenyl)-4-((R)-3-methyl-1-(N-phenylcyclopropanesulfonamido)butan-2-yl)-3-oxomorpholin-2-yl)acetic acid or 2-((2S,5R,6R)-6-(3-chlorophenyl)-5-(4-chlorophenyl)-4-((R)-3-methyl-1-(N-phenylcyclopropanesulfonamido)butan-2-yl)-3-oxomorpholin-2-yl)acetic acid] the figure was 32 nM.
The value for `CC(C)(C)S(=O)(=O)C[C@H](C1CC1)N1C(=O)[C@@](C)(CC(=O)O)O[C@H](c2cccc(Cl)c2)[C@H]1c1ccc(Cl)c(F)c1` (single isomer, unassigned) [Example 411, 2-((2R,5R,6R)-4-((S)-2-(tert-Butylsulfonyl)-1-cyclopropylethyl)-5-(4-chloro-3-fluorophenyl)-6-(3-chlorophenyl)-2-methyl-3-oxomorpholin-2-yl)acetic acid or 2-((2S,5R,6R)-4-((S)-2-(tert-butylsulfonyl)-1-cyclopropylethyl)-5-(4-chloro-3-fluorophenyl)-6-(3-chlorophenyl)-2-methyl-3-oxomorpholin-2-yl)acetic acid] was less than 1 nM; that for `CCC[C@@H](CS(=O)(=O)C(C)(C)C)N1C(=O)[C@@H](CC(=O)O)O[C@H](c2cccc(Cl)c2)[C@H]1c1ccc(Cl)cc1` (single isomer, unassigned) [Example 195, 2-((2R,5R,6R)-4-((S)-1-(tert-butylsulfonyl)pentan-2-yl)-6-(3-chlorophenyl)-5-(4-chlorophenyl)-3-oxomorpholin-2-yl)acetic acid or 2-((2S,5R,6R)-4-((S)-1-(tert-butylsulfonyl)pentan-2-yl)-6-(3-chlorophenyl)-5-(4-chlorophenyl)-3-oxomorpholin-2-yl)acetic acid] was 3 nM.
The value for `O=C(O)C[C@H]1O[C@H](c2cccc(Cl)c2)[C@@H](c2ccc(Cl)cc2)N([C@H](CN(c2ccccc2F)S(=O)(=O)C2CC2)C(F)(F)F)C1=O` (single isomer, unassigned) [Example 274] was 4 nM.
Turning to `CN(C)C(=O)C[C@H]1O[C@H](c2cccc(Cl)c2)[C@@H](c2ccc(Cl)cc2)N([C@H](CN(c2ccccc2F)S(=O)(=O)C2CC2)C2CC2)C1=O` (single isomer, unassigned) [Example 367, 2-((2R,5R,6R)-6-(3-Chlorophenyl)-5-(4-chlorophenyl)-4-((S)-1-cyclopropyl-2-(N-(2-fluorophenyl)cyclopropanesulfonamido)ethyl)-3-oxomorpholin-2-yl)-N,N-dimethylacetamide or 2-((2S,5R,6R)-6-(3-chlorophenyl)-5-(4-chlorophenyl)-4-((S)-1-cyclopropyl-2-(N-(2-fluorophenyl)cyclopropanesulfonamido)ethyl)-3-oxomorpholin-2-yl)-N,N-dimethylacetamide], the IC50 turned out to be 4 nM.
As to `CC(C)(C)S(=O)(=O)C[C@H](C1CC1)N1C(=O)[C@@H](CC(=O)Nc2ccccn2)O[C@H](c2cccc(Cl)c2)[C@H]1c1ccc(Cl)cc1` (single isomer, unassigned) [Example 355, 2-((2R,5R,6R)-4-((S)-2-(tert-Butylsulfonyl)-1-cyclopropylethyl)-6-(3-chlorophenyl)-5-(4-chlorophenyl)-3-oxomorpholin-2-yl)-N-(pyridin-2-yl)acetamide or 2-((2S,5R,6R)-4-((S)-2-(tert-butylsulfonyl)-1-cyclopropylethyl)-6-(3-chlorophenyl)-5-(4-chlorophenyl)-3-oxomorpholin-2-yl)-N-(pyridin-2-yl)acetamide], half-maximal inhibition (IC50) required 4 nM.
With `CC[C@@H](CS(=O)(=O)C1CC1)N1C(=O)[C@@H](CC(=O)O)O[C@H](c2cccc(Cl)c2)[C@H]1c1ccc(Cl)cc1` (single isomer, unassigned) [Example 212, 2-((2R,5R,6R)-6-(3-chlorophenyl)-5-(4-chlorophenyl)-4-((S)-1-(cyclopropylsulfonyl)butan-2-yl)-3-oxomorpholin-2-yl)acetic acid or 2-((2S,5R,6R)-6-(3-chlorophenyl)-5-(4-chlorophenyl)-4-((S)-1-(cyclopropylsulfonyl)butan-2-yl)-3-oxomorpholin-2-yl)acetic acid] the figure was 2 nM.
With `CC(C)(C)S(=O)(=O)C[C@H](C1CC1)N1C(=O)[C@@H](CC(=O)NCC(F)(F)F)O[C@H](c2cccc(Cl)c2)[C@H]1c1ccc(Cl)cc1` (single isomer, unassigned) [Example 347, 2-((2R,5R,6R)-4-((S)-2-(tert-Butylsulfonyl)-1-cyclopropylethyl)-6-(3-chlorophenyl)-5-(4-chlorophenyl)-3-oxomorpholin-2-yl)-N-(2,2,2-trifluoroethyl)acetamide or 2-((2S,5R,6R)-4-((S)-2-(tert-butylsulfonyl)-1-cyclopropylethyl)-6-(3-chlorophenyl)-5-(4-chlorophenyl)-3-oxomorpholin-2-yl)-N-(2,2,2-trifluoroethyl)acetamide] the figure was 4 nM; with `CC(C)(C)S(=O)(=O)C[C@H](C1CC1)N1C(=O)[C@@H](CC(=O)O)O[C@H](c2ccc(F)c(Cl)c2)[C@H]1c1ccc(Cl)cc1` (single isomer, unassigned) [Example 320, 2-((2R,5R,6R)-4-((S)-2-(tert-Butylsulfonyl)-1-cyclopropylethyl)-6-(3-chloro-4-fluorophenyl)-5-(4-chlorophenyl)-3-oxomorpholin-2-yl)acetic acid or 2-((2S,5R,6R)-4-((S)-2-(tert-butylsulfonyl)-1-cyclopropylethyl)-6-(3-chloro-4-fluorophenyl)-5-(4-chlorophenyl)-3-oxomorpholin-2-yl)acetic acid], 3 nM; with `CC[C@@H](CS(=O)(=O)C(C)(C)C)N1C(=O)[C@@H](CC(=O)O)O[C@H](c2cccc(Cl)c2)[C@H]1c1ccc(Cl)cc1F` (single isomer, unassigned) [Example 316, 2-((2R,5R,6R)-4-((S)-1-(tert-Butylsulfonyl)butan-2-yl)-5-(4-chloro-2-fluorophenyl)-6-(3-chlorophenyl)-3-oxomorpholin-2-yl)acetic acid or 2-((2S,5R,6R)-4-((S)-1-(tert-butylsulfonyl)butan-2-yl)-5-(4-chloro-2-fluorophenyl)-6-(3-chlorophenyl)-3-oxomorpholin-2-yl)acetic acid], 2 nM.
The compound `CC(C)(C)S(=O)(=O)C[C@H](C1CC1)N1C(=O)[C@@H](CC(=O)O)O[C@H](c2cccc(Cl)c2)[C@H]1c1ccc(Cl)c(F)c1` (single isomer, unassigned) [Example 308, 2-((2R,5R,6R)-4-((S)-2-(tert-Butylsulfonyl)-1-cyclopropylethyl)-5-(4-chloro-3-fluorophenyl)-6-(3-chlorophenyl)-3-oxomorpholin-2-yl)acetic acid or 2-((2S,5R,6R)-4-((S)-2-(tert-butylsulfonyl)-1-cyclopropylethyl)-5-(4-chloro-3-fluorophenyl)-6-(3-chlorophenyl)-3-oxomorpholin-2-yl)acetic acid] yielded an IC50 of less than 1 nM.
The value for `CC(C)(C)S(=O)(=O)C[C@H](C1CC1)N1C(=O)[C@@H](CC(=O)O)O[C@H](c2ccc(F)c(Cl)c2)[C@H]1c1ccc(Cl)cc1` (single isomer, unassigned) [Example 321, 2-((2R,5R,6R)-4-((S)-2-(tert-Butylsulfonyl)-1-cyclopropylethyl)-6-(3-chloro-4-fluorophenyl)-5-(4-chlorophenyl)-3-oxomorpholin-2-yl)acetic acid or 2-((2S,5R,6R)-4-((S)-2-(tert-butylsulfonyl)-1-cyclopropylethyl)-6-(3-chloro-4-fluorophenyl)-5-(4-chlorophenyl)-3-oxomorpholin-2-yl)acetic acid] was 2 nM; that for `CC[C@@H](CS(=O)(=O)c1ccccc1Cl)N1C(=O)[C@@H](CC(=O)O)O[C@H](c2cccc(Cl)c2)[C@H]1c1ccc(Cl)cc1` (single isomer, unassigned) [Example 137, 2-((2R,5R,6R)-6-(3-chlorophenyl)-5-(4-chlorophenyl)-4-((S)-1-((2-chlorophenyl)sulfonyl)butan-2-O-3-oxomorpholin-2-yl)acetic acid or 2-((2S,5R,6R)-6-(3-chlorophenyl)-5-(4-chlorophenyl)-4-((S)-1-((2-chlorophenyl)sulfonyl)butan-2-yl)-3-oxomorpholin-2-yl)acetic acid] was 5 nM.
